Laboratory results reported in paper PMC9043391, “Isolation and biological activities of compounds from Rumex vesicarius L. and their use as a component of a synbiotic preparation” (Food Chemistry: X, 2022).
Marks after values point to notes of the source that are not given here. Square brackets hold non-standard residues; d marks the D form. Peptide text beside a SMILES is read from it. * marks the point of attachment. Sta = CC(C)C[C@H](N)[C@@H](O)CC(=O)O; Isovaleryl = CC(C)CC(=O)*

Columns and labels:
[1] = tested on: Escherichia coli Nissle 1917 (EcN); assay: Growth kinetic curves of Escherichia coli Nissle 1917 (OD600, DMFit); type: cell-based; conditions: for Effect on lag phase of EcN compared with control: 2 mg/mL, in words
Procedure: (§1) Escherichia coli K12 (K12) was chosen as a representative enteric species, and E. coli Nissle 1917 (EcN) was chosen as a representative probiotic strain. Both strains were obtained from the bacterial strain collection in Food Microbiology Laboratory (Dairy department, Faculty of Agriculture, Mansoura University, Egypt). An overnight culture of both strains was activated in nutrient broth (NB) (BD Difco™, Bacton, Dickinson and Company Sparks, MD, USA) at 37 °C for 16–18 h. The culture was diluted on test days in buffered peptone water to a final concentration of 1.5 × 10^8 colony forming units (CFU)/mL cell counts were assessed by pour plate method, one mL of a suitable dilution was incubated on nutrient agar at 37 °C for 24 h. colonies were then counted and converted to CFU/mL ([Dawood et al., 2021]).
An aliquot (100 µL) of EcN was inoculated into NB (BD Difco ^TM) and incubated at 37 °C for 24 h. An overnight culture of EcN was further streaked onto nutrient agar and incubated for 48 h at 37 °C. The EcN culture was diluted in sterile saline solution (0.85%) on the day of assay to adjust the final cell count to 1.5 × 10^8 CFU/mL. Bacterial growth was determined in NB supplemented with individual pure compounds (1–8) or extracts (methanol, petroleum ether, and ethyl acetate) at 2 mg/mL. Growth kinetics of EcN were monitored spectrophotometrically by OD600 every of 60 min at 37 °C ([Pacheco-Ordaz et al., 2018]). DMFit ver. 2.1 an Excel add-in was used to determine: doubling time (Td), lag time, maximum growth at the stationary phase (Y max, OD), and specific growth rate (µmax, OD).

[2] = tested on: Escherichia coli Nissle 1917 (EcN); assay: Prebiotic index of EcN (CFU on sample vs CFU on glucose); type: cell-based; conditions: 2 mg/mL, 24 h, ratio to growth on 2 mg/mL glucose
Procedure: as §1
Prebiotic index (PI) was estimated as previously described ([Dawood et al., 2021]). E. coli Nissle 1917 was used as the representative probiotic strain. Aliquots containing 10^7 CFU of an overnight culture of EcN were inoculated into separate tubes containing NB. Two mg/mL of extracts or isolated phenolic compounds or 2 mg/mL of glucose as a positive control was added, and growth of EcN was assessed as the number of viable colonies forming units (CFU)/mL after incubation for 24 h using the pour method on nutrient agar, followed by incubation at 37 °C for 24 h. PI is the ratio of growth of EcN in NB supplemented with individual compounds or extracts to growth on glucose. A PI greater than one indicates a positive influence on the growth of EcN. PI was calculated as follows:(1) PI=CFUofEcNinPhenolicCompounds(asprebiotic)/CFUofECNinglucose(ascontrolcarbohydrate)

[3] = target: angiotensin-converting enzyme (ACE) (Homo sapiens, UniProt P12821); assay: Angiotensin-converting enzyme inhibitory activity (HHL cleavage, 228 nm); type: biochemical; conditions: whey of yogurt enriched at 2 mg/mL, after 7 days of refrigerated storage; in words
Sequence of angiotensin-converting enzyme (ACE) (P12821 30-1306, species assumed): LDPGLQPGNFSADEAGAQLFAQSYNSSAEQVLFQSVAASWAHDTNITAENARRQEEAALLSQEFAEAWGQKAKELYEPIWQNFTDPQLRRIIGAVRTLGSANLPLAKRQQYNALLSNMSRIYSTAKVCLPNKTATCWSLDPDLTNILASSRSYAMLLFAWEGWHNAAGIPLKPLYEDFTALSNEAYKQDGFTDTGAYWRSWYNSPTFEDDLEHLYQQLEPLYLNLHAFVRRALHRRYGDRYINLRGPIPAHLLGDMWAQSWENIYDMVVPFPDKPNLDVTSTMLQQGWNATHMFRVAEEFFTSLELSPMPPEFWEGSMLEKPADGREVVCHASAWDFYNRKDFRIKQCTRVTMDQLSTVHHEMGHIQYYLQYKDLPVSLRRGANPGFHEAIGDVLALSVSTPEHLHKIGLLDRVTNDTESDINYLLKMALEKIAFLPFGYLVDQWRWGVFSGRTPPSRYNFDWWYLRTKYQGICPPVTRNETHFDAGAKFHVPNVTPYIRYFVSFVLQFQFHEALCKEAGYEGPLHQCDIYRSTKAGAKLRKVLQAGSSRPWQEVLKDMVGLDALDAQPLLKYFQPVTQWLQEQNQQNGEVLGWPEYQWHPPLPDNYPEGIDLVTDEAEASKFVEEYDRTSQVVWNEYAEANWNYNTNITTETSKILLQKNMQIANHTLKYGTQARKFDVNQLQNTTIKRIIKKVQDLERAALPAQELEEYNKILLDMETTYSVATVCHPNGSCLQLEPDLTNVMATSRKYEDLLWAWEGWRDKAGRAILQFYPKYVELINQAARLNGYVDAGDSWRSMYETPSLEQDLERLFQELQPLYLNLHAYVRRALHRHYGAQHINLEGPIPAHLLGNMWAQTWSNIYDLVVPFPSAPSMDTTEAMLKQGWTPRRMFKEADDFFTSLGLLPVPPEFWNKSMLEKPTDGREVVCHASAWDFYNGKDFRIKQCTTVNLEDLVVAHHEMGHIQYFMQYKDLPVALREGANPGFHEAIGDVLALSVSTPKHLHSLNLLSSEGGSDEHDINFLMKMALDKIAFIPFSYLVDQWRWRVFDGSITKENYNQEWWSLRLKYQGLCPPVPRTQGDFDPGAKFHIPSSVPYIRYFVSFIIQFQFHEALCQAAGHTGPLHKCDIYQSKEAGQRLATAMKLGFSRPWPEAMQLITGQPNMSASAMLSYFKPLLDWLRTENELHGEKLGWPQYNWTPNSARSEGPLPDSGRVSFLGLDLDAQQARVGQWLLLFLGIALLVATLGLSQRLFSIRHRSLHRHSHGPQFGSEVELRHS
Procedure: Lyophilized aqueous extract (whey) obtained from yogurt enriched with extracts or individual compounds at 2 mg/mL was used. […] The method depends on hipuryl-histdylleucine (HHL) cleavage to hippuric acid by ACE. HHL (3.8 mM) was diluted in 0.1 M borate buffer (200 μL; pH 8.3), including 0.3 M NaCl, then 35 μL of sample solution (2 mg/mL) was added, and the mixture incubated for 10 min at 37 °C. The reaction was initiated by adding 20 μL of ACE solution (0.1 U/mL in borate buffer) and allowed to proceed for 30 min at 37 °C. HCl (250 μL of a 1 M solution) was then added to stop the reaction. […] Subsequently, 1 mL of supernatant (ethyl acetate) was collected in a new tube and placed in boiling water for 30 min to eliminate the solvent. The remaining hippuric acid residue was dissolved in 1 mL of distilled water, and absorbance was measured at 228 nm using distilled water as a blank. All samples were analyzed in triplicate. Captopril (0.008 mg/mL) was used as a positive control, and lyophilized aqueous extract (whey) obtained from plain yogurt was used as a negative control. The calculation of ACE inhibitory activity was determined as follows:(3) ACE inhibition%=[1-(A-C)/(B-D)]×100 where A is absorbance with the sample, HHL, and ACE; B is absorbance with HHL and ACE without sample; C is absorbance with sample and HHL; D is absorbance with HHL without sample and ACE.

[4] = tested on: E. coli Nissle 1917 (EcN) versus Escherichia coli K12; assay: Prebiotic activity score (EcN growth relative to enteric E. coli K12, vs glucose); type: cell-based; conditions: EcN vs E. coli K12, 24 h at 37 °C
Procedure: as §1
Log E is log of CFU/mL of K12 at zero time (E0) and 24 h (E24) of culture on glucose and pure compounds. Individual pure compounds or extracts that induce a high value of Pscore improve EcN growth compared with the growth rate of EcN on glucose. Support of K12 growth by pure compounds or extracts theoretically should be low compared to growth of K12 on glucose.

pepsin = pepsin (Homo sapiens, UniProt P0DJD8); assay: Protease (pepsin) inhibition with bovine serum albumin substrate; type: biochemical; conditions: samples at 2 mg/mL; Pepstatin A 0.5 µg/mL positive control; in words
Sequence of pepsin (P0DJD8 63-388): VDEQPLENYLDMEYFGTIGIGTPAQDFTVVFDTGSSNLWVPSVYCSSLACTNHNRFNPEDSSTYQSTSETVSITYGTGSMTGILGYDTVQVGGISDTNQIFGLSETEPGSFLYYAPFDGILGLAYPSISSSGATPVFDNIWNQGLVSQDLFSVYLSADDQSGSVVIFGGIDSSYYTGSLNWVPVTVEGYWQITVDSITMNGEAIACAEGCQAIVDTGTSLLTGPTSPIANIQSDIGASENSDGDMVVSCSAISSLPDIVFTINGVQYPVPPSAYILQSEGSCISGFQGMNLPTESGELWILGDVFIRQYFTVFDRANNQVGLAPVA
Procedure: Protease used the protocol of [Hu et al. (2013]). Briefly, 100 µL of pepsin solution (1 mg pepsin/1 mL of 0.02 N HCl) was mixed with 0.5 mL of 10 mg/mL bovine serum albumin and 0.5 mL of extracts or pure compounds (2 mg/mL) and incubated for 30 min at 37 °C. TCA (0.9 mL 5%) was added to stop the reaction, followed by centrifugation (4800g, 15 min). Protein concentration in the final supernatant was determined using Coomassie (Bradford) protein assay kits. Pepstatin A (0. 5 µg/mL) was used as a positive control.

α-amylase = α-amylase inhibition (starch, dinitrosalicylic acid, 540 nm); type: biochemical; conditions: samples at 2 mg/mL; acarbose 5 µg/mL positive control; in words
Procedure: α-amylase inhibition was determined as previously reported ([Hu et al., 2013]). Briefly, 200 µL of 20 mM sodium phosphate buffer (pH 7.0 with 6 mM NaCl), including α-amylase (10 U/mL) and 200 µL of sample (2 mg/mL), was incubated at 37 °C for 45 min. A potato starch solution (400 µL; 0.5%) was added to each sample and incubated at 37 °C in a shaking water bath (100 rpm) for 10 min. The enzymatic reaction was stopped with dinitrosalicylic acid color reagent. Screw cape tubes were transferred to a water bath at 100 °C for 10 min, then cooled to room temperature. Finally, samples were diluted with 3 mL of deionized water (3 mL). Absorbance of diluted reaction mixtures was measured spectrophotometrically at 540 nm (Spectro UV–VIS Auto, UV2602, Labomed, USA). Test and control samples were compared and expressed as percentage inhibition of α-amylase. Acarbose (5 µg/mL) was used as a positive control, and samples in buffer without test compounds or extracts were included as negative controls.

[5] = EcN in nutrient broth supplemented at 2 mg/mL, 37 °C, n = 3

Row | SMILES | Lag (min) [1, 5] | Prebiotic index (PI) [2] | Effect on lag phase of EcN compared with control [1] | other results
1 | CC(=O)c1c(C)cc2cccc(O)c2c1O [Compound 1, Nepodin] | 240 ^a min | 0.94 ± 0.24 |  | ACE inhibitory activity [3]: the highest compared with other isolated compounds
2 | Cc1cc(O)c2c(c1)C(=O)c1cccc(O)c1C2=O [Compound 2, chrysophanol] | 180 ^b min |  | significantly (P < 0.05) decreased lag phase | 
3 | COc1cc(O)c2c(c1)C(=O)c1cc(C)cc(O)c1C2=O [Compound 3, physcion] | 180 ^b min |  | significantly (P < 0.05) decreased lag phase | 
4 | CC[C@H](CC[C@@H](C)[C@H]1CC[C@H]2[C@@H]3CC=C4C[C@@H](O)CC[C@]4(C)[C@H]3CC[C@]12C)C(C)C [Compound 4, β-sitosterol] | 60 ^c min | 3.05 ± 0.47 | significantly (P < 0.05) decreased lag phase | Prebiotic activity score (Pscore) [4]: about 3.02 ± 0.48; Td (min), doubling time [1, 5]: 39.71 min
5 | Cc1cc(O)c2c(c1)C(=O)c1cc(O)cc(O)c1C2=O [Compound 5, emodin] | 240 ^a min | 1.14 ± 0.20 |  | ACE inhibitory activity [3]: the lowest inhibitory activity of ACE compared with other compounds
6 | CC[C@@H](CCC(C)C1CCC2C3CC=C4C[C@@H](O[C@@H]5O[C@H](CO)[C@@H](O)[C@H](O)[C@H]5O)CC[C@]4(C)C3CC[C@]12C)C(C)C (stereo partly drawn) [Compound 6, β-sitosterol 3-O-β-D-glucoside] | 180 ^b min |  | significantly (P < 0.05) decreased lag phase | 
7 | CC(=O)c1c(C)cc2cccc(O[C@@H]3O[C@H](CO)[C@@H](O)[C@H](O)[C@H]3O)c2c1O [Compound 7, 6-methyl-7-acetyl-1,8-dihydroxy naphthalene-1-O-β-D-glucoside] | 180 ^b min |  | significantly (P < 0.05) decreased lag phase | 
8 | CCO[C@@H]1O[C@H](CO)[C@@H](O)[C@H](O)[C@H]1O [Compound 8, ethyl β-D-glucopyranoside] | 180 ^b min |  | significantly (P < 0.05) decreased lag phase | 
9 | CC(C)CC(=O)N[C@H](C(=O)N[C@H](C(=O)N[C@@H](CC(C)C)[C@@H](O)CC(=O)N[C@@H](C)C(=O)N[C@@H](CC(C)C)[C@@H](O)CC(=O)O)C(C)C)C(C)C [Pepstatin, Pepstatin A] (Isovaleryl-VV[Sta]A[Sta]-OH) |  |  |  | Inhibition of pepsin (protease) activity (pepsin): inhibitory activity greater than for any extracts or isolated compounds
10 | C[C@H]1O[C@H](O[C@H]2[C@H](O)[C@@H](O)[C@@H](O[C@H]3[C@H](O)[C@@H](O)C(O)O[C@@H]3CO)O[C@@H]2CO)[C@H](O)[C@@H](O)[C@@H]1N[C@H]1C=C(CO)[C@@H](O)[C@H](O)[C@H]1O (some centres unmarked) [acarbose, Acarbose] |  |  |  | Inhibition of α-amylase activity (α-amylase): inhibition was greater than for either extracts
